The record followed here is patent publication US9725445B2, “Cycloalkyl nitrile pyrazolo pyridones as Janus kinase inhibitors” (Merck Sharp & Dohme Corp., priority 2013, dated 2017).

The structures appear in SMILES notation.

Sequence of JAK1 (P23458 875-1153): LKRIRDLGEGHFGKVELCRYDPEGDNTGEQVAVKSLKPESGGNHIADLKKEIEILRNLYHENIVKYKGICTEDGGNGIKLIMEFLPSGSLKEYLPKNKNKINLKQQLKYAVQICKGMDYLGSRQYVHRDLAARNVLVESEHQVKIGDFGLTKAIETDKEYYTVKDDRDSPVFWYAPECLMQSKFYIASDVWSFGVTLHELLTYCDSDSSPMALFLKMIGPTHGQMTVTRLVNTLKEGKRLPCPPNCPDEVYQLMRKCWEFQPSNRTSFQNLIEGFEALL

For this experiment, the target named is JAK1 (Homo sapiens (Human), UniProt P23458). The experiment is described as follows: Jak biochemical HTRF assay, JAK1. Conditions: HTRF biochemical assay, recombinant GST-tagged catalytic domain; read-out: JAK1 IC50. Here is the method:
Jak Biochemical HTRF Assay Protocol
The ability of compounds to inhibit the activity of JAK1, JAK2, JAK3, and Tyk2 was measured using a recombinant purified GST-tagged catalytic domain for each enzyme (Invitrogen JAK1 #M4290, JAK2 #M4290, JAK3 #M4290, Tyk2 #M4290) in an HTRF format biochemical assay. […] The basic assay protocol is as follows: First, 250 nL of diluted compounds in DMSO were dispensed into the wells of a dry 384-well Black plate (Greiner #781076) using a Labcyte Echo 555 acoustic dispenser. Subsequent reagent additions employed an Agilent Bravo. […] After equilibration, 2 μL of 10×ATP in 1× assay buffer was added to initiate the kinase reaction and the plates were shaken and then incubated at room temperature for 120 minutes. […] Plates were shaken and centrifuged and then incubated 60 minutes at room temperature and then read on a Perkin Elmer Envision (λex=337 nm, λem=665 and 615 nm, TRF delay time=20 μs). HTRF signal=10,000*665 nm reading/615 nm reading. After normalization to untreated controls, the percent inhibition of the HTRF signal at each compound concentration was calculated. The plot of percent inhibition versus the log of compound concentration was fit with a 4-parameter dose response equation to calculate IC50 values.
Final Reaction Conditions were:
Examples of the instant invention were evaluated in JAK1 and JAK2 in vitro binding assays.
As to `N#C[C@H]1CCCC[C@@H]1n1nc(Nc2ccc3c(c2)CN(CC2CC2)C3)c2c(=O)[nH]ccc21` [Example 3-77, (1S,2S)-2-(3-{[2-(cyclopropylmethyl)-2,3-dihydro-1H-isoindol-5-yl]amino}-4-oxo-4,5-dihydro-1H-pyrazolo[4,3-c]pyridin-1-yl)cyclohexanecarbonitrile], the IC50 was 0.52 nM.

As to `CC(C)(CCO)N1Cc2cc(Nc3nn([C@H]4CCCC[C@@H]4C#N)c4cc[nH]c(=O)c34)ccc2S1(=O)=O` [Example 3-81, (1S,2S)-2-(3-{[2-(3-hydroxy-1,1-dimethylpropyl)-1,1-dioxido-2,3-dihydro-1,2-benzisothiazol-5-yl]amino}-4-oxo-4,5-dihydro-1H-pyrazolo[4,3-c]pyridin-1-yl)cyclohexanecarbonitrile], the concentration for half-maximal inhibition (IC50) was determined as 0.055 nM.

Regarding `CC(C)(CO)CN1Cc2cc(Nc3nn([C@H]4CCCC[C@@H]4C#N)c4cc[nH]c(=O)c34)ccc2S1(=O)=O` [Example 3-82, (1S,2S)-2-(3-{[2-(3-hydroxy-2,2-dimethylpropyl)-1,1-dioxido-2,3-dihydro-1,2-benzisothiazol-5-yl]amino}-4-oxo-4,5-dihydro-1H-pyrazolo[4,3-c]pyridin-1-yl)cyclohexanecarbonitrile], the IC50 is 0.11 nM.

Take `N#C[C@@H]1C[C@@H](O)CC[C@H]1n1nc(Nc2ccc(C(F)(F)F)cc2)c2c(=O)[nH]ccc21` [Example 3-89, (1R,2R,5S)-5-hydroxy-2-(4-oxo-3-((4-(trifluoromethyl)phenyl)amino)-4,5-dihydro-1H-pyrazolo[4,3-c]pyridin-1-yl)cyclohexanecarbonitrile]: the 50% inhibitory concentration (IC50) was 9.8 nM.

As for `CS(=O)(=O)c1ccc(Nc2nn([C@H]3CCC[C@@H]3C#N)c3cc[nH]c(=O)c23)cc1` [Example 3-94, (1S,2S)-2-(3-{[4-(methylsulfonyl)phenyl]amino}-4-oxo-4,5-dihydro-1H-pyrazolo[4,3-c]pyridin-1-yl)cyclopentanecarbonitrile], the half-inhibitory concentration (IC50) stood at 0.12 nM.

`N#C[C@H]1CCC[C@@H]1n1nc(Nc2ccc(S(N)(=O)=O)cc2)c2c(=O)[nH]ccc21` [Example 3-99, 4-({1-[(1S,2S)-2-cyanocyclopentyl]-4-oxo-4,5-dihydro-1H-pyrazolo[4,3-c]pyridin-3-yl}amino)benzenesulfonamide]: the IC50 was determined as 0.09 nM.

Take `CC(C)S(=O)(=O)c1ccc(Nc2nn([C@H]3CCCC[C@@H]3C#N)c3cc[nH]c(=O)c23)cc1` [Example 3-141, (1S,2S)-2-[3-({4-[(1-methylethyl)sulfonyl]phenyl}amino)-4-oxo-4,5-dihydro-1H-pyrazolo[4,3-c]pyridin-1-yl]cyclohexanecarbonitrile]: the half-inhibitory concentration (IC50) stood at 0.15 nM.

`CC(C)(C)S(=O)(=O)c1ccc(Nc2nn([C@H]3CCCC[C@@H]3C#N)c3cc[nH]c(=O)c23)cc1` [Example 3-143, (1S,2S)-2-(3-{[4-(tert-butylsulfonyl)phenyl]amino}-4-oxo-4,5-dihydro-1H-pyrazolo[4,3-c]pyridin-1-yl)cyclohexanecarbonitrile]: the IC50 stood at 0.12 nM.

`CC(C)N1Cc2cc(Nc3nn([C@H]4CCCC[C@@H]4C#N)c4cc[nH]c(=O)c34)ccc2C1=O` [Example 3-153, (1S,2S)-2-(3-{[2-(1-methylethyl)-1-oxo-2,3-dihydro-1H-isoindol-5-yl]amino}-4-oxo-4,5-dihydro-1H-pyrazolo[4,3-c]pyridin-1-yl)cyclohexanecarbonitrile]: the IC50 was determined as 0.057 nM.

Consider `CC(C)(C)OC(=O)CCN1Cc2ccc(Nc3nn([C@H]4CCCC[C@@H]4C#N)c4cc[nH]c(=O)c34)cc2C1` [Example 3-163, tert-butyl 3-[5-({1-[(1S,2S)-2-cyanocyclohexyl]-4-oxo-4,5-dihydro-1H-pyrazolo[4,3-c]pyridin-3-yl}amino)-1,3-dihydro-2H-isoindol-2-yl]propanoate], for which the IC50 was 0.49 nM.

As to `C[C@H](N[C@@H]1CC[C@H](n2nc(Nc3ccc(C(F)(F)F)cc3)c3c(=O)[nH]ccc32)[C@@H](C#N)C1)C1CC1` [Example 5-11, (1S,2S,5R)-5-(((S)-1-cyclopropylethyl)amino)-2-(4-oxo-3-((4-(trifluoromethyl)phenyl)amino)-4,5-dihydro-1H-pyrazolo[4,3-c]pyridin-1-yl)cyclohexanecarbonitrile], the half-inhibitory concentration (IC50) is 3 nM.

`C[C@H](N[C@H]1CC[C@H](n2nc(Nc3ccc(C(F)(F)F)cc3)c3c(=O)[nH]ccc32)[C@@H](C#N)C1)C1CC1` [Example 5-12, (1S,2S,5S)-5-(((S)-1-cyclopropylethyl)amino)-2-(4-oxo-3-((4-(trifluoromethyl)phenyl)amino)-4,5-dihydro-1H-pyrazolo[4,3-c]pyridin-1-yl)cyclohexanecarbonitrile]: the IC50 came out at 1.2 nM.

Consider `C[C@H](N[C@H]1CC[C@@H](n2nc(Nc3ccc(C(F)(F)F)cc3)c3c(=O)[nH]ccc32)[C@H](C#N)C1)C1CC1` [Example 5-13, (1R,2R,5S)-5-(((S)-1-cyclopropylethyl)amino)-2-(4-oxo-3-((4-(trifluoromethyl)phenyl)amino)-4,5-dihydro-1H-pyrazolo[4,3-c]pyridin-1-yl)cyclohexanecarbonitrile], for which the half-inhibitory concentration (IC50) is 97 nM.

`C[C@H](N[C@@H]1CC[C@@H](n2nc(Nc3ccc(C(F)(F)F)cc3)c3c(=O)[nH]ccc32)[C@H](C#N)C1)C1CC1` [Example 5-14, (1R,2R,5R)-5-(((S)-1-cyclopropylethyl)amino)-2-(4-oxo-3-((4-(trifluoromethyl)phenyl)amino)-4,5-dihydro-1H-pyrazolo[4,3-c]pyridin-1-yl)cyclohexanecarbonitrile]: the half-maximal inhibitory concentration (IC50) worked out at 9.4 nM.

As to `N#C[C@H]1C[C@H](N2CC(O)C2)CC[C@@H]1n1nc(Nc2ccc(Cl)cc2)c2c(=O)[nH]ccc21` [Example 5-19, (1S,2S,5R)-2-(3-((4-chlorophenyl)amino)-4-oxo-4,5-dihydro-1H-pyrazolo[4,3-c]pyridin-1-yl)-5-(3-hydroxyazetidin-1-yl)cyclohexanecarbonitrile], the IC50 was found to be 0.11 nM.

As for `N#C[C@H]1C[C@@H](N2CC(O)C2)CC[C@@H]1n1nc(Nc2ccc(Cl)cc2)c2c(=O)[nH]ccc21` [Example 5-20, (1S,2S,5S)-2-(3-((4-chlorophenyl)amino)-4-oxo-4,5-dihydro-1H-pyrazolo[4,3-c]pyridin-1-yl)-5-(3-hydroxyazetidin-1-yl)cyclohexanecarbonitrile], the IC50 is 0.14 nM.

Turning to `N#C[C@H]1CCCC[C@@H]1n1nc(Nc2cccc(CN)c2)c2c(=O)[nH]ccc21` [Example 6-1, (1S,2S)-2-(3-((3-(Aminomethyl)phenyl)amino)-4-oxo-4,5-dihydro-1H-pyrazolo[4,3-c]pyridin-1-yl)cyclohexanecarbonitrile], the IC50 turned out to be 1.5 nM.

For `CN(C)S(=O)(=O)c1ccc(Nc2nn([C@H]3CCCC[C@@H]3C#N)c3cc[nH]c(=O)c23)cc1CN` [Example 8-1, 2-(Aminomethyl)-4-((1-((1S,2S)-2-cyanocyclohexyl)-4-oxo-4,5-dihydro-1H-pyrazolo[4,3-c]pyridin-3-yl)amino)-N,N-dimethylbenzenesulfonamide], the half-inhibitory concentration (IC50) is 0.78 nM.

Take `N#C[C@H]1CCCC[C@@H]1n1nc(Nc2ccc(-c3ccon3)cc2)c2c(=O)[nH]ccc21` [Example 15-4, (1S,2S)-2-{3-[(4-isoxazol-3-ylphenyl)amino]-4-oxo-4,5-dihydro-1H-pyrazolo[4,3-c]pyridin-1-yl}cyclohexanecarbonitrile]: the concentration for half-maximal inhibition (IC50) turned out to be 0.18 nM.
